Molecules are shown by their SMILES.

The test system of one data set is MiaPaCa-2. Description: Cell viability assay (CellTiter Glo), pancreatic carcinoma MiaPaCa-2. Type of data set: cell-based. The note with it: Homo sapiens, MIA PaCa-2; pancreatic carcinoma, 96 hours, CellTiter Glo; read-out: IC50 MiaPaCa-2. In outline:
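MiaPaCa-2 and AsPC-1 cells were seeded overnight at 37 °C and exposed for 96 h to 9-point, 3-fold dilutions from up to 30 μM (final DMSO ≤0.25%). CellTiter Glo luminescence was read, and inhibition was calculated relative to DMSO-only cells. IC50, relative IC50 or % top inhibition was derived.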
For orientation: Cellular ATP, detected with luciferase, serves as a proxy for viable cell number.

Data set [1] in a line: Pharmacokinetic (PK) studies in Balb/C nude mice via intraperitoneal injection. The conditions noted are these: male, Balb/c nude, mouse, plasma, ip, 15 mg/kg, Calculated Concentration, IP 15 mg/kg, Balb/C nude mice.
Description: Test compounds were dissolved either in 20% (w/w) sulfobutylether-β-cyclodextrin (SBECD) pH 3-7 aqueous solution, or 5% DMSO/(30-50%) PEG400/(65-45%) water. Test compound dosing solutions were administered intraperitoneally to Balb/c nude male mice. Blood samples were collected at various time points with EDTA-K2 as anti-coagulant on ice, and centrifuged to obtain plasma samples. The plasma samples were stored at −20° C. until analysis.
Into 10 μL of test compound plasma samples were added 2 μL DMSO then 200 μL of 5 ng/mL internal standard (VTSD) (Terfenadine) in MeOH/acetonitrile. The mixture was vortexed for 1 minute and centrifuged at 4000 rpm for 15 minutes. Calibration standards were prepared by spiking known amount of test compounds into blank plasma samples. The supernatant solution was diluted 5 times with Acetonitrile/H2O (with 0.1% formic acid, 1:1, v/v), and this is the solution for LC-MS/MS analysis. The limit of quantification (LOQ) was 1 ng/mL.
Typical HPLC mobile phases were mobile phase of 5 mM NH4OAc (with 0.05% formic acid); and mobile phase B of acetonitrile (with 0.1% formic acid). The HPLC column was Kinetex C18 (30 mm×3.00 mm). Mass spectrometer was tuned for each compound in the Multiple Reaction Monitoring (MRM) scanning mode and in the electrospray ionization mode. The lower limit of quantification was 1-10 ng.
In this study, K601 (RSL3) was formulated in 5% DMSO/30% PEG 400/65% water at 1.5 mg/mL. The volume of injection via intraperitoneal route was 10 mL/kg for a dose of 15 mg/kg. […] The limit of quantification (LOQ) was 1 ng/mL.
In this study, the compound was formulated in 20% (w/w) sulfobutylether-β-cyclodextrin (SBECD), pH 5 aqueous solution at 1.5 mg/mL. The volume of injection via intraperitoneal route was 10 mL/kg for a dose of 15 mg/kg. The concentration of test compounds in plasma were analyzed by LC-MS with the method described above. The limit of quantification was 1 ng/mL.
It was formulated in 5% DMSO/50% PEG400/45% Water pH adjusted to 4 with HCl as an aqueous solution at 1.0 mg/mL. The volume of injection via intraperitoneal route was 15 mL/kg for a dose of 15 mg/kg. The concentration of test compounds in plasma were analyzed by LC-MS with the method described above. The limit of quantification was 1 ng/mL. […] The limit of quantification was 1 ng/mL.
Compounds 24 and 28 were formulated in 20% (w/w) sulfobutylether-β-cyclodextrin (SBECD) with pH 3 and pH 4, respectively, as an aqueous solution at 1.0 mg/mL. Compound 67 was in 5% DMSO/50% PEG 400/45% water pH 4 (adjusted with 12 N HCl) aqueous solution at 1.0 mg/mL. The injection volume via intraperitoneal route was 10 mL/kg for a dose of 15 mg/kg. The concentration of test compounds in plasma were analyzed by LC-MS with the method described above. The limit of quantification was 1 ng/mL.
The subject of the next data set is H1299. Kind of data set: Cell viability assay (CellTiter Glo), lung cancer cell line H1299. Format: cell-based. The conditions noted are these: Homo sapiens, NCI-H1299, 96 hours. How it is done:
(§1) Cell viability assay was performed to assess the potency of the compounds in human cancer cell lines KP4 (pancreatic ductal adenocarcinoma), MiaPaCa-2 (pancreatic carcinoma), AsPC-1 (pancreatic adenocarcinoma, ascites), 143B (osteosarcoma), and SJSA-1 (osteosarcoma). Selected compounds were also assayed in a human breast epithelial cell line MCF-10A, a nontumorigenic cell line as a control to assess differential activity. Cells at a density of 500-5,000 cells/well were seeded in 96-well plates and incubated at 37° C. overnight. A series of 9 different concentrations of compound stocks (500×) were created by 3-fold serial dilution in DMSO. These compounds were further diluted in culture media and then added to cells so that the final DMSO concentration was equal to 0.25% or less. After 96 hours of incubation, 50 μL of CellTiter Glo reagent (Promega) was added to each well and luminescence was measured after 10 minutes using EnVision (PerkinElmer). Compounds titrated from top concentration of up to 30 μM. The select compounds were tested initially from 30 μM as the top concentration in duplicates (range of 4.6 nM-30 μM). […] Luminescence from cells treated with DMSO alone was set as Max and % of inhibition was calculated as follows: Inhibition %=(Max-Sample value)/Max*100. Data was analyzed using XL-fit software (ID Business Solutions Ltd.). IC50, relative IC50, or % of top inhibition was calculated.
(§2) A group of selected analogs were further profiled in cell viability assays described above in multiple additional cancer cell lines, including lung cancer, melanoma, hepatocarcinoma, pancreatic cancer, leukemia, lymphoma, ovarian cancer, breast cancer, colon cancer, and sarcoma cell lines. Initial cell seeding numbers were adjusted for each cell line. Typically, 500-5000 cells/well for adherent cells and 5000-10000/well for suspension cells were seeded in 96-well plates.

Another data set has as its system H2228. Kind of data set: Cell viability assay (CellTiter Glo), lung cancer cell line H2228. Type of data set: cell-based. The note with it: Homo sapiens, NCI-H2228; lung cancer cell line, 96 hours, CellTiter Glo; read-out: IC50 H2228. The procedure:
as §1, §2

The test system of another data set is MDA-MB-435S. Kind of data set: Cell viability assay (CellTiter Glo), melanoma cell line MDA-MB-435S. The note with it: Homo sapiens, 96 hours. Format: cell-based. The procedure:
as §1, §2

The test system of a further data set is Huh7. Description: Cell viability assay (CellTiter Glo), hepatocellular carcinoma Huh7. The conditions noted are these: Homo sapiens, Huh-7, 96 hours. Type of data set: cell-based. The procedure: as §1, §2
The subject of another data set is PANC1. Kind of data set: Cell viability assay (CellTiter Glo), pancreatic cell line PANC1. Format: cell-based. The conditions noted are these: Homo sapiens, PANC-1, 96 hours. The procedure: as §1, §2
The results of the assay in the pancreatic cell lines are given in Table 15a for PANC1, Table 15b for MiaPaCa-2, and Table 15c for AsPC-1.

Another data set has as its system MV-4-1. Description: Cell viability assay (CellTiter Glo), leukemia cell line MV-4-1. Type of data set: cell-based. The conditions noted are these: 96 hours. How it is done:
as §1, §2
The results of the assay in the leukemia cell lines are given in Table 16a for MV-4-1 and Table 16b for HL-60 and Kasumi-1.

The subject of another data set is REC-1. Description: Cell viability assay (CellTiter Glo), lymphoma cell line REC-1. Format: cell-based. The note with it: Homo sapiens, Rec1, 96 hours. How it is done: as §1, §2
The subject of another data set is Raji. Description: Cell viability assay (CellTiter Glo), lymphoma cell line Raji. Format: cell-based. The conditions noted are these: Homo sapiens, 96 hours. How it is done: as §1, §2
Another data set concerns SK-OV-3. Description: Cell viability assay (CellTiter Glo), ovarian cancer cell line SK-OV-3. Type of data set: cell-based. The conditions noted are these: Homo sapiens, 96 hours. How it is done:
as §1, §2

A further data set concerns HCC1954. Kind of data set: Cell viability assay (CellTiter Glo), breast cancer cell line HCC1954. The conditions noted are these: Homo sapiens, 96 hours. Type of data set: cell-based. How it is done: as §1, §2
For another data set, the system named is HT29. Description: Cell viability assay (CellTiter Glo), colon cancer cell line HT29. Format: cell-based. The note with it: Homo sapiens, HT-29, 96 hours. How it is done: as §1, §2
Another data set deals with HT-1080 luc2. Kind of data set: Cell viability assay (CellTiter Glo), fibrosarcoma HT-1080 luc2. Type of data set: cell-based. The conditions noted are these: Homo sapiens, fibrosarcoma expressing a luciferase gene, 96 hours, CellTiter Glo, read-out: IC50 HT-1080 luc2. The procedure:
as §1, §2
(§3) The results of the assay in sarcoma cell lines are given in Table 21a for HT-1080 luc2 (fibrosarcoma expressing a luciferase gene), Table 21b for 143B (osteosarcoma), and Table 21c for SJSA-1 (osteosarcoma).

For another data set, the system named is MCF-10A. Kind of data set: Cell viability assay (CellTiter Glo), non-tumorigenic breast epithelial cell line MCF-10A. Type of data set: cell-based. The note with it: Homo sapiens, 96 hours. The essentials: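 MCF-10A cells (500-5,000/well) treated 96 h at 37° C with 9-point 3-fold dilutions from up to 30 μM, ≤0.25% DMSO, in duplicate. Viability by CellTiter Glo luminescence; % inhibition versus DMSO-only wells gave IC50, relative IC50 or % top inhibition. Paclitaxel positive control.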

For the next data set, the system named is 143B. Description: Cell viability assay (CellTiter Glo), osteosarcoma 143B. Format: cell-based. The note with it: Homo sapiens, 96 h, osteosarcoma, 96 hours, CellTiter Glo, read-out: IC50 143B. How it is done:
as §1, §3

For the next data set, the system named is SJSA-1. Description: Cell viability assay (CellTiter Glo), osteosarcoma SJSA-1. Type of data set: cell-based. The conditions noted are these: Homo sapiens, 96 hours. The procedure:
as §1, §3

Usually IC50 stands for the midpoint of a concentration-inhibition curve. As to `CN(C)C(=O)[C@H]1Cc2c([nH]c3ccccc23)[C@H](c2ccc([Si](C)(C)C)cc2)N1C(=O)CCl` [Example 67], the IC50 with MiaPaCa-2 was found to be 805 nM. Also, in data set [1] (individual mice), the concentration at 0.5 h was 90.6 ng/mL, the concentration at 1 h was 38.7 ng/mL and the concentration at 4 h was 16.6 ng/mL. Further, in [1] (Mean, mean of 3 mice), the concentration at 0.5 h was 112 ng/mL, the concentration at 1 h was 51.7 ng/mL and the concentration at 4 h is 14.4 ng/mL. Also, the concentration at 2 h in data set [1] (Mean, 2 h, mean of 3 mice) is 20.2 ng/mL.
`COC(=O)c1ccc([C@H]2c3[nH]c4ccc(OC)cc4c3C[C@H](C)N2C(=O)CCl)cc1` [Example 113]: the IC50 worked out at 79 nM with H1299; 145 nM with H2228; 48 nM in the data set on MDA-MB-435S; 157 nM with Huh7; 214 nM in the data set on PANC1; 532 nM with MV-4-1. The IC50 with REC-1 was 222 nM; in the data set with Raji, 81 nM; in the data set with SK-OV-3 it was 146 nM; with HCC1954, 200 nM; in the data set with HT29 it was 494 nM; with HT-1080 luc2, 69 nM.
As for `C[C@H]1Cc2c([nH]c3ccccc23)[C@H](c2ccc(S(=O)(=O)N[C@]34CC5C[C@H](C[C@H](C5)C3)C4)cc2)N1C(=O)CCl` [Example 101], the IC50 in the data set with H1299 worked out at 38 nM; in the data set on H2228, 163 nM; in the data set with MDA-MB-435S it was 36 nM; with Huh7, 72 nM; in the data set with PANC1, 169 nM; in the data set on MV-4-1, 174 nM. Besides, the 50% inhibitory concentration (IC50) with REC-1 came out at 191 nM; with Raji, 75 nM; in the data set on SK-OV-3 it was 114 nM; in the data set with HCC1954, 613 nM; in the data set on HT29 it was 403 nM; with HT-1080 luc2 it was 39 nM. The same compound returned an IC50 in the data set with MCF-10A of 1070 nM.
As to `COC(=O)c1ccc([C@@H]2c3[nH]c4ccc(Cl)cc4c3C[C@H](C(=O)OC)N2C(=O)CCl)cc1` [Example 94], the IC50 in the data set on H1299 was 5 nM; in the data set with H2228 it was 19 nM; in the data set with MDA-MB-435S, 9 nM; in the data set with Huh7 it was 26 nM; in the data set on PANC1, 47 nM; in the data set on MV-4-1, 83 nM. For the same compound, the IC50 in the data set on REC-1 stood at 29 nM; in the data set on Raji it was 9 nM; with SK-OV-3, 18 nM; with HCC1954, 68 nM; in the data set with HT29, 110 nM; in the data set on HT-1080 luc2, 8 nM. In the data set on MCF-10A, this compound returned an IC50 of 460 nM.
As to `C[C@H]1Cc2c([nH]c3ccccc23)[C@H](c2ccc(C3CCCCC3)cc2)N1C(=O)CCl` [Example 110], the IC50 in the data set with H1299 came to 30 nM; in the data set with H2228 it was 51 nM; with MDA-MB-435S, 14 nM; with Huh7, 35 nM; with PANC1, 72 nM; in the data set with MV-4-1, 164 nM. Moreover, the IC50 worked out at 96 nM with REC-1; 33 nM in the data set with Raji; 53 nM with SK-OV-3; 101 nM in the data set with HCC1954; 112 nM in the data set with HT29; 17 nM in the data set on HT-1080 luc2.
In the case of `C[C@H]1Cc2c([nH]c3ccccc23)[C@H](c2ccc([Si](C)(C)C)cc2)N1C(=O)CCl` [Example 106], the IC50 with H1299 worked out at 7 nM; in the data set on H2228, 55 nM; in the data set with MDA-MB-435S it was 17 nM; in the data set with Huh7 it was 28 nM; in the data set on PANC1, 55 nM; in the data set with MV-4-1, 170 nM. In addition, the IC50 in the data set on REC-1 was found to be 156 nM; with Raji, 31 nM; in the data set with SK-OV-3 it was 87 nM; in the data set with HCC1954, 120 nM; in the data set with HT29, 189 nM; in the data set on HT-1080 luc2, 11 nM.
Regarding `COC(=O)[C@H]1Cc2c([nH]c3ccccc23)[C@H](c2ccc(OC(C)=O)cc2)N1C(=O)CCl` [Example 12], the IC50 in the data set on MiaPaCa-2 was 69 nM; in the data set with 143B it was 81 nM; in the data set with SJSA-1, 149 nM; in the data set on MCF-10A, 1420 nM.
Turning to `COC(=O)[C@H]1Cc2c([nH]c3ccccc23)[C@H](c2ccc(S(=O)(=O)N(C)C)cc2)N1C(=O)CCl` [Example 23], the IC50 was found to be 36 nM in the data set on MiaPaCa-2, 34 nM with 143B, 90 nM in the data set with SJSA-1 and 2390 nM in the data set on MCF-10A.
Turning to `CNS(=O)(=O)c1ccc([C@H]2c3[nH]c4ccccc4c3C[C@H](C(=O)OC)N2C(=O)CCl)cc1` [Example 22], the IC50 turned out to be 39 nM in the data set with MiaPaCa-2, 74 nM in the data set with 143B, 202 nM in the data set on SJSA-1 and 3300 nM in the data set on MCF-10A.
Regarding `CC(C)(C)OC(=O)c1ccc([C@H]2c3[nH]c4ccccc4c3C[C@H](C(=O)OC(C)(C)C)N2C(=O)CCl)cc1` [Example 19], the IC50 in the data set with MiaPaCa-2 is 63 nM; in the data set with 143B, 101 nM; in the data set with SJSA-1, 215 nM; in the data set with MCF-10A, 430 nM.
On the same counts, the results for `COC(=O)[C@H]1Cc2c([nH]c3ccccc23)[C@H](c2ccc(C(=O)NCCNC(=O)OC(C)(C)C)cc2)N1C(=O)CCl` [Example 16] are 24 nM, 104 nM, 200 nM and 1950 nM.
`C[C@H]1Cc2c([nH]c3ccccc23)[C@H](c2ccc(C3CCOCC3)cc2)N1C(=O)CCl` [Example 112]: the IC50 is 38 nM in the data set with H1299; 66 nM in the data set with H2228; 30 nM with MDA-MB-435S; 81 nM in the data set on Huh7; 81 nM with PANC1; 270 nM in the data set on MV-4-1. Further, the IC50 in the data set on REC-1 came out at 140 nM; with Raji, 46 nM; with SK-OV-3 it was 102 nM; with HCC1954, 101 nM; with HT29 it was 198 nM; with HT-1080 luc2, 24 nM.

Values taken from patent US11098040B2, “Compounds and methods of use” (Ferro Therapeutics, Inc., priority 2018, dated 2021).
